In patent publication US5856506A, “Phosphatase inhibitors and methods of use thereof” (University of Pittsburgh, priority 1997, dated 1999):

What was measured:
[1] = system: PP3; assay: Phosphatase activity by [32P] release from phosphorylase-a or phosphohistone (Honkanen method); format: biochemical; details: 100 μM inhibitor; none = 100
Method: (§1) It has been found in accordance with the present invention that compounds of formula I are capable of inhibiting serine/threonine protein phosphatases. Inhibition of serine/threonine protein phosphatases is defined herein as inhibition of the activity of one or more of PP1, PP2A or PP3 at a concentration of 100 μM or less of the inhibitor compound. In a preferred embodiment, the activity of the phosphatase is inhibited by at least 10%. In more preferred embodiments, the activity of the phophatase is inhibited by at least 25%, or even more preferably, by at least 50%. Inhibition of PP1, PP2A or PP3 can be assessed by methods known to one of ordinary skill in the art. Suitable assays are described, for example by Honkanen et al. (1994) Toxicon 32:339 and Honkanen et al. (1990) J. Biol. Chem. 265: 19401, the disclosures of which are incorporated herein by reference. Briefly, phosphatase activity is determined by quantifying the [^32 p] released from a ^32 p-labeled substrate such as phosphohistone or phosphorylase-a. Decreased [^32 p] release in the presence of the compounds of the present invention relative to control samples provides a measure of the ability of the compounds of the invention to inhibit PP1, PP2A or PP3.
(§2) Phosphatase activity and the inhibitory activity of the compounds of Table 1 were determined by the method of Honkanen et al. (1994) Toxicon 32:339. Briefly, phosphatase activity against phosphorylase-a or phosphohistone was 25 determined by the quantification of liberated [^32 p]. Assays, 80 μl total volume, containing 50 mM Tris-HCl, pH 7.4, 0.5 mM DTT, 1 mM EDTA (assay buffer) and [^32 p]phosphoprotein (1-2 μM PO4), were conducted as described previously (Honkanen et al., 1991 Mol. Pharmac. 40:577). Dephosphorylation reactions were routinely conducted for 5-10 min. using phosphorylase-a as a substrate and for 10-20 min. using phosphohistone. In all assays the dephosphorylation of substrate was kept to less than 10% of the total phosphorylated substrate available, and the reactions were adjusted to ensure that enzyme activity was linear with respect to enzyme concentration and time. [^32 p]Phosphate liberated by the enzymes was extracted as a phosphomolybdate complex and measured according to the methods of Killilea et al. (1978) Arch. Biochem. Biophys. 191:638. Inhibition of protein phosphatase activity by inhibitors was determined by adding the 100 μM of inhibitors to the enzyme mixture 5-10 min. prior to initiating the reaction with the addition of substrate.

[2] = target: PP2A (Bos taurus, UniProt P67774); assay: as above; format: biochemical; details: 100 μM inhibitor; none = 100; read-out: PP2A, percent inhibition relative to control (100%)
Method: as §1, §2

[3] = system: PP1; assay: as above; format: biochemical; details: 100 μM inhibitor; none = 100
Method: as §1, §2

[4] = system: MDA-MB-231 cells; assay: Cell cycle distribution by flow cytometry (propidium iodide); format: cell-based, human; details: for cell cycle distribution: 88 μM, MDA-MB-231
Excerpt: FIGS. 10A-D depict cell cycle distribution of human breast cancer cells after treatment with compound 1f determined by flow cytometry. […] Fluorescence channel measures intracellular propidium iodide concentration, an index of DNA content. Horizontal bars are the gating positions that allow for cell cycle analysis. […] Open bars are control cells and black bars are cells treated with compound 1f. […] The mean values were obtained from three independent determinations. Open bars are control cells and black bars are cells treated with 88 μM compound 1f.
MDA-MB-231 cells (6.5×10^5 /cm^2) were plated and incubated at 37° C. for 48 h. The plating medium was then aspirated off, and medium containing a concentration of compound 1f that caused approximately 50% growth inhibition (88-100 μM) was added for 48 to 72 h. Untreated cells at a similar cell density were used as control populations. Single cell preparations were fixed in ice-cold 1% paraformaldehyde, centrifuged at 1,000×g for 5 min, resuspended in Puck's saline, centrifuged, and resuspended in ice-cold 70% ethanol overnight. The cells were removed from fixatives by centrifugation (1,000×g for 5 min) and stained with a 5 μg/mL propidium iodide and 50 μg/mL RNase A solution. Flow cytometry analyses were conducted with a Becton Dickinson FACS Star. Single parameter DNA histograms were collected for 10,000 cells, and cell cycle kinetic parameters calculated using DNA cell cycle analysis software version C (Becton Dickinson). Experiments at 72 h were performed at least 3 independent times.

[5] = system: Recombinant human CDC25B; assay: CDC25B phosphatase assay, GST fusion protein, fluorescein diphosphate; format: biochemical; details: none = 100; 1 hour preincubation; concentration not given (0.3-100 μM tested)
Method: The compounds of the present invention are also capable of inhibiting dual specificity phosphatases, for example CDC25A and CDC25B. Phosphatases CDC25A and CDC25B are disclosed in U.S. Pat. No. 5,441,880. Inhibition of dual specificity phosphatases is defined herein as inhibition of the activity of CDC25A and/or CDC25B at a concentration of 100 μM of the inhibitor compound. In a preferred embodiment, the activity of the phosphatase is inhibited by at least 10%. In more preferred embodiments, the activity of the phophatase is inhibited by at least 25%, or even more preferably, by at least 50%. The ability of the compounds of the present invention to inhibit the phosphatases can be determined by measuring the effect of the compounds on the ability of CDC25 or CDC25B to dephosphorylate a substrate. Appropriate methods are known to those of ordinary skill in the art, and include, for example, calorimetric assays. A suitable assay is described in U.S. Pat. No. 5,441,880, the disclosure of which is incorporated herein by reference. […] The assay may be performed as a rapid calorimetric microtitration plate assay.
Compounds 1a-1r were assessed for ability to inhibit CDC25A and CDC25B activity. Recombinant human CDC25A and CDC25B were obtained as a glutahione-S-transferase (GST) fusion protein using human cDNA and standard molecular biological methods. The cDNA constructs are in a plasmid that is expressed in E. coli under the control of isopropyl-beta-D-[…] (IPTG). The bacterial pellet was disrupted by sonication, and centrifuged at 10,000×g. Using glutathione-agarose beads, the fusion protein was purified from postmicrosomal supernant fraction as described by Baratte et al. (1992) Anticancer Res. 12: 873-880. Phosphatase activity was assayed with a spectrofluorimeter under the following conditions: 1 unit (1 U=amount of protein that induces 33 fluoresence units/minute of product) of fusion protein in a final incubation mixture (150 μL) comprised of 25 mM Tris (pH=8.0), 5 mM EDTA, 33 μg/ml BSA, and 20 μM fluorescein diphosphate in 96-well microtiter plates. Plates were preincubated for 1 hour with 0 (control), 0.3, 1, 3, 10, 30, 100 μM compounds at room temperature. After the 1 hour incubation at room temperature, fluorescence of the fluorescein product (Ex. 485 nm; Em. 530 nm) were measured with a Biosystems Cytofluor II (Framingham, Mass.).

PP2A, sequence (P67774 whole entry): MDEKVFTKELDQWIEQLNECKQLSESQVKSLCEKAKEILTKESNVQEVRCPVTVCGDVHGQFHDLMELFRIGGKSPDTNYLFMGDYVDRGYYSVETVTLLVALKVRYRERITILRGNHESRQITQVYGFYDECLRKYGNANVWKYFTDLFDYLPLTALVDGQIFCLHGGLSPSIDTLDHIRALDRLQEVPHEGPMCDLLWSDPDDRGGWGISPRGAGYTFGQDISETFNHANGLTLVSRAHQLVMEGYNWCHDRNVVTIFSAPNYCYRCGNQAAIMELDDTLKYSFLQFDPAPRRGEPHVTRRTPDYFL

SMILES: CCCCCCCCCC(=O)NC(CCC(=O)N(CCNC(=O)c1nc(-c2ccccc2)oc1-c1ccccc1)Cc1ccccc1)C(=O)O (stereo not shown) [Compound 1f]
- PP3 remaining activity, percent of control [1]: 85%
- PP2A remaining activity, % of control at 100 µM [2]: 156%
- PP1 remaining activity, percent of control [3]: 117%
- cell cycle distribution ([4]; 48 h): prominent accumulation in the Gi phase with a concomitant decrease in both S and G2/M phases
- cell cycle distribution ([4]; 72 h): prominent accumulation in the G1 phase
- site of blockage in cell cycle progression ([4]; MDA-MB-231, conclusion): blockage in cell cycle progression is at the G1 checkpoint
- CDC25B activity remaining, percent of control [5]: 15%
